In this assay the target is recombinant human integrin αvβ6 (Homo sapiens, UniProt P06756+P18564). Kind of assay: Solid phase integrin αvβ6 binding assay. Conditions: read-out: αvβ6 Inhibition IC50 (nM) - range. The procedure: Microplates were coated with recombinant human integrin αvβ6 (2 μg/mL) in PBS (100 μL/well 25° C., overnight). The coating solution was removed, washed with wash buffer (0.05% Tween 20; 0.5 mM MnCl2; in 1×TBS). The plate was blocked with 200 μL/well of Block Buffer (1% BSA; 5% sucrose; 0.5 mM MnCl2; in 1×TBS) at 37° C. for 2 h. Dilutions of testing compounds and recombinant TGFβ1 LAP (0.67 μg/mL) in binding buffer (0.05% BSA; 2.5% sucrose; 0.5 mM MnCl2; in 1×TBS) were added. The plate was incubated for 2 hours at 25° C., washed, and incubated for 1 hour with Biotin-Anti-hLAP. Bound antibody was detected by peroxidase-conjugated streptavidin. The IC50 values for testing compounds were calculated by a four-parameter logistic regression.
Chain of recombinant human integrin αvβ6 (P06756 31-992 limits assumed): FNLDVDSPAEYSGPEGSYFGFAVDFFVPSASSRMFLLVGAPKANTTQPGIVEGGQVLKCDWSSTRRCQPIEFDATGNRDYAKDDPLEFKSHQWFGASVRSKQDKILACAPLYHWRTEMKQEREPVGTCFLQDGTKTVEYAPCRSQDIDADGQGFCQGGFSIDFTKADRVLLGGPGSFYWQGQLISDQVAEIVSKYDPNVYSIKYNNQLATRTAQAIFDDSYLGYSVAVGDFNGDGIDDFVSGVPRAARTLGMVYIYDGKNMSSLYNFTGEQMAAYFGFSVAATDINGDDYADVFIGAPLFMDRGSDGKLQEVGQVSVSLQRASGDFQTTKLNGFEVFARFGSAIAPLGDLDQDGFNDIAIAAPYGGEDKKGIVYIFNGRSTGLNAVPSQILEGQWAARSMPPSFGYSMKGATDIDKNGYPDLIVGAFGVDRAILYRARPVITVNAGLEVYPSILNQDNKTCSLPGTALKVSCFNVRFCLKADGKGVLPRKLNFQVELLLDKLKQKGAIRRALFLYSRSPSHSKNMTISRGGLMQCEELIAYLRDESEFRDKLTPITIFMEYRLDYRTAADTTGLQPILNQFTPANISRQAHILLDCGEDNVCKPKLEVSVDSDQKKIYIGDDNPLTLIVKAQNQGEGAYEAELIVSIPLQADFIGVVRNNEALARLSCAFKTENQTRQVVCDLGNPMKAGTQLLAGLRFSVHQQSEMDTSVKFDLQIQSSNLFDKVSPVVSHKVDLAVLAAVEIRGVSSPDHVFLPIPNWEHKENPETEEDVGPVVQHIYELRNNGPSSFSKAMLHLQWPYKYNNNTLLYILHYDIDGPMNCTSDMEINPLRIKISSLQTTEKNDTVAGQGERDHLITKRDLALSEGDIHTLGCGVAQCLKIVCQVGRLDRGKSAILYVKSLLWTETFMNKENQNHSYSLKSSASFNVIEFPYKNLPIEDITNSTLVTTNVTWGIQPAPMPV
Chain of recombinant human integrin αvβ6 (P18564 22-707 limits assumed): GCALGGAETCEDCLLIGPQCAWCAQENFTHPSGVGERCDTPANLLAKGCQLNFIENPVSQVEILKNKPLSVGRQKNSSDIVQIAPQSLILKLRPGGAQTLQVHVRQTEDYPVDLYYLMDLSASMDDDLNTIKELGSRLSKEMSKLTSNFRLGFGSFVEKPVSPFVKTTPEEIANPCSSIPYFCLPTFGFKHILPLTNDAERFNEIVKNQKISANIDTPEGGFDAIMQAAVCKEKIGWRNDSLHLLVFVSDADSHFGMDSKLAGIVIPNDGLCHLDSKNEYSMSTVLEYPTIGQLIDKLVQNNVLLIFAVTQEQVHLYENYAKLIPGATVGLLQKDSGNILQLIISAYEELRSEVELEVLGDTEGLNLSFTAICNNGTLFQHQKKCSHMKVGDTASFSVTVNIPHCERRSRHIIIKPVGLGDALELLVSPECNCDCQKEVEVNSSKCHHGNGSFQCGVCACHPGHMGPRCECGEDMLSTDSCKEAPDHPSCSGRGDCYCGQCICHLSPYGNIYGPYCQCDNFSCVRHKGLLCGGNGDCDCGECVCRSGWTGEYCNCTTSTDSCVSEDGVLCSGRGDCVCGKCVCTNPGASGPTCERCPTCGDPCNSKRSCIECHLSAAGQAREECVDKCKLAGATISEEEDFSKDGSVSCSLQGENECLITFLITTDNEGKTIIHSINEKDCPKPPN
The compounds tested were compound samples prepared according to procedures described in the Synthetic Examples section, with the stereochemical purity as indicated in the Examples.
Regarding `O=C(O)[C@H](CCN(CCCCc1ccc2c(n1)NCCC2)CCC(F)F)Nc1ncnc2ccccc12` [Compound 29, (S)-4-((3,3-difluoropropyl) (4-(5,6,7,8-tetrahydro-1,8-naphthyridin-2-yl)butyl)amino)-2-(quinazolin-4-ylamino) butanoic acid], the IC50 is less than 50 nM.

Take `Cn1ncc2c(N[C@@H](CCN(CCCCc3ccc4c(n3)NCCC4)CC(F)F)C(=O)O)ncnc21` [Compound 88, (S)-4-((2,2-difluoroethyl) (4-(5,6,7,8-tetrahydro-1,8-naphthyridin-2-yl)butyl)amino)-2-((1-methyl-1H-pyrazolo[3,4-d]pyrimidin-4-yl)amino) butanoic acid]: the half-maximal inhibitory concentration (IC50) was greater than 1000 nM.

Consider `O=C(O)[C@H](CCN(CCCCc1ccc2c(n1)NCCC2)CCC(F)F)Nc1ncc(C2CC2)cn1` [Compound 135, (S)-2-((5-cyclopropylpyrimidin-2-yl)amino)-4-((3,3-difluoropropyl) (4-(5,6,7,8-tetrahydro-1,8-naphthyridin-2-yl)butyl)amino) butanoic acid], for which the IC50 fell in the range of 50 to 250 nM.

For the compound `COCCN(CCCCc1ccc2c(n1)NCCC2)CC[C@H](Nc1nccc2ccccc12)C(=O)O` [Compound 34, (S)-2-(isoquinolin-1-ylamino)-4-((2-methoxyethyl) (4-(5,6,7,8-tetrahydro-1,8-naphthyridin-2-yl)butyl)amino) butanoic acid], the IC50 was greater than 1000 nM.

In the case of `CO[C@H](C)CN(CCCCc1ccc2c(n1)NCCC2)CC[C@H](Nc1ccncn1)C(=O)O` [Compound 106, (S)-4-(((R)-2-methoxypropyl) (4-(5,6,7,8-tetrahydro-1,8-naphthyridin-2-yl)butyl)amino)-2-(pyrimidin-4-ylamino) butanoic acid], the IC50 is less than 50 nM.

With `COCCN(CCCCc1ccc2c(n1)NCCC2)CC[C@H](Nc1ccnc2ccccc12)C(=O)O` [Compound 36, (S)-4-((2-methoxyethyl) (4-(5,6,7,8-tetrahydro-1,8-naphthyridin-2-yl)butyl)amino)-2-(quinolin-4-ylamino) butanoic acid], the IC50 was greater than 1000 nM.

As to `Cn1ncc2c(N[C@@H](CCN(CCCCc3ccc4c(n3)NCCC4)CCOc3ccc(F)cc3)C(=O)O)ncnc21` [Compound 123, (S)-4-((2-(4-fluorophenoxy)ethyl) (4-(5,6,7,8-tetrahydro-1,8-naphthyridin-2-yl)butyl)amino)-2-((1-methyl-1H-pyrazolo[3,4-d]pyrimidin-4-yl)amino) butanoic acid], the IC50 is less than 50 nM.

In the case of `CO[C@@H](C)CN(CCCCc1ccc2c(n1)NCCC2)CC[C@H](Nc1ncnc2ccccc12)C(=O)O` [Compound 25, (S)-4-(((S)-2-methoxypropyl) (4-(5,6,7,8-tetrahydro-1,8-naphthyridin-2-yl)butyl)amino)-2-(quinazolin-4-ylamino) butanoic acid], the concentration for half-maximal inhibition (IC50) was less than 50 nM.

As for `COC[C@@H](F)CN(CCCCc1ccc2c(n1)NCCC2)CC[C@H](Nc1ncc(C#N)cn1)C(=O)O` [Compound 84, (S)-2-((5-cyanopyrimidin-2-yl)amino)-4-(((S)-2-fluoro-3-methoxypropyl) (4-(5,6,7,8-tetrahydro-1,8-naphthyridin-2-yl)butyl)amino) butanoic acid], the IC50 was 250 to 1000 nM.

Consider `Cn1ncc2c(N[C@@H](CCN(CCCF)CCCCc3ccc4c(n3)NCCC4)C(=O)O)ncnc21` [Compound 136, (S)-4-((3-fluoropropyl) (4-(5,6,7,8-tetrahydro-1,8-naphthyridin-2-yl)butyl)amino)-2-((1-methyl-1H-pyrazolo[3,4-d]pyrimidin-4-yl)amino) butanoic acid], for which the IC50 is less than 50 nM.

With `COCCN(CCCCc1ccc2c(n1)NCCC2)CC[C@H](Nc1ncnc2cc(F)ccc12)C(=O)O` [Compound 7, (S)-2-((7-fluoroquinazolin-4-yl)amino)-4-((2-methoxyethyl) (4-(5,6,7,8-tetrahydro-1,8-naphthyridin-2-yl)butyl)amino) butanoic acid], the IC50 was less than 50 nM.

As to `COC[C@@H](F)CN(CCCCc1ccc2c(n1)NCCC2)CC[C@H](Nc1cc(-c2ccccc2)ncn1)C(=O)O` [Compound 128, (S)-4-(((S)-2-fluoro-3-methoxypropyl) (4-(5,6,7,8-tetrahydro-1,8-naphthyridin-2-yl)butyl)amino)-2-((6-phenylpyrimidin-4-yl)amino) butanoic acid], the IC50 is greater than 1000 nM.

As for `O=C(O)[C@H](CCN(CCCCc1ccc2c(n1)NCCC2)CCC(F)F)Nc1ncc(Br)cn1` [Compound 131, (S)-2-((5-bromopyrimidin-2-yl)amino)-4-((3,3-difluoropropyl) (4-(5,6,7,8-tetrahydro-1,8-naphthyridin-2-yl)butyl)amino) butanoic acid], the IC50 was in the range of 50 to 250 nM.

As to `CS(=O)(=O)CCN(CCCCc1ccc2c(n1)NCCC2)CC[C@H](Nc1ncnc2ccccc12)C(=O)O` [Compound 27, (S)-4-((2-(methylsulfonyl)ethyl) (4-(5,6,7,8-tetrahydro-1,8-naphthyridin-2-yl)butyl)amino)-2-(quinazolin-4-ylamino) butanoic acid], the IC50 is less than 50 nM.

As for `COCCN(CCCCc1ccc2c(n1)NCCC2)CC[C@H](Nc1ncnc2cccnc12)C(=O)O` [Compound 16, (S)-4-((2-methoxyethyl) (4-(5,6,7,8-tetrahydro-1,8-naphthyridin-2-yl)butyl)amino)-2-(pyrido[3,2-d]pyrimidin-4-ylamino) butanoic acid], the IC50 was less than 50 nM.

In the case of `Cn1ncc2c(N[C@@H](CCN(CCCCc3ccc4c(n3)NCCC4)CCS(C)(=O)=O)C(=O)O)ncnc21` [Compound 101, (S)-2-((1-methyl-1H-pyrazolo[3,4-d]pyrimidin-4-yl)amino)-4-((2-(methylsulfonyl)ethyl) (4-(5,6,7,8-tetrahydro-1,8-naphthyridin-2-yl)butyl)amino) butanoic acid], the IC50 lay within 50 to 250 nM.

In the case of `CO[C@H](C)CN(CCCCc1ccc2c(n1)NCCC2)CC[C@H](Nc1cc(-c2ccccc2)ncn1)C(=O)O` [Compound 80, (S)-4-(((R)-2-methoxypropyl) (4-(5,6,7,8-tetrahydro-1,8-naphthyridin-2-yl)butyl)amino)-2-((6-phenylpyrimidin-4-yl)amino) butanoic acid], the concentration for half-maximal inhibition (IC50) was less than 50 nM.

For `O=C(O)[C@H](CCN(CCCCc1ccc2c(n1)NCCC2)CCOc1ccc(F)cc1)Nc1ncc(C(F)(F)F)cn1` [Compound 139, (S)-4-((2-(4-fluorophenoxy)ethyl) (4-(5,6,7,8-tetrahydro-1,8-naphthyridin-2-yl)butyl)amino)-2-((5-(trifluoromethyl)pyrimidin-2-yl)amino) butanoic acid], the IC50 is less than 50 nM.

For `O=C(O)[C@H](CCN(CCCCc1ccc2c(n1)NCCC2)CC(F)F)Nc1ncncc1-c1ccccc1` [Compound 119, (S)-4-((2,2-difluoroethyl) (4-(5,6,7,8-tetrahydro-1,8-naphthyridin-2-yl)butyl)amino)-2-((5-phenylpyrimidin-4-yl)amino) butanoic acid], the IC50 was greater than 1000 nM.

Take `Cn1ncc2c(N[C@@H](CCN(CCCCc3ccc4c(n3)NCCC4)CCOc3ccccc3)C(=O)O)ncnc21` [Compound 82, (S)-2-((1-methyl-1H-pyrazolo[3,4-d]pyrimidin-4-yl)amino)-4-((2-phenoxyethyl) (4-(5,6,7,8-tetrahydro-1,8-naphthyridin-2-yl)butyl)amino) butanoic acid]: the concentration for half-maximal inhibition (IC50) was less than 50 nM.

As for `CO[C@H](C)CN(CCCCc1ccc2c(n1)NCCC2)CC[C@H](Nc1ncncc1-c1ccccc1)C(=O)O` [Compound 81, (S)-4-(((R)-2-methoxypropyl) (4-(5,6,7,8-tetrahydro-1,8-naphthyridin-2-yl)butyl)amino)-2-((5-phenylpyrimidin-4-yl)amino) butanoic acid], the 50% inhibitory concentration (IC50) was less than 50 nM.

Consider `CO[C@H](C)CN(CCCCc1ccc2c(n1)NCCC2)CC[C@H](Nc1ncnc2ccccc12)C(=O)O` [Compound 62, (S)-4-(((R)-2-methoxypropyl) (4-(5,6,7,8-tetrahydro-1,8-naphthyridin-2-yl)butyl)amino)-2-(quinazolin-4-ylamino) butanoic acid], for which the IC50 was less than 50 nM.

Regarding `CO[C@H](C)CN(CCCCc1ccc2c(n1)NCCC2)CC[C@H](Nc1ncc(C2CC2)cn1)C(=O)O` [Compound 124, (S)-2-((5-cyclopropylpyrimidin-2-yl)amino)-4-(((R)-2-methoxypropyl) (4-(5,6,7,8-tetrahydro-1,8-naphthyridin-2-yl)butyl)amino) butanoic acid], the IC50 was less than 50 nM.

For the compound `O=C(O)[C@H](CCN(CCCCc1ccc2c(n1)NCCC2)C1CC1)Nc1ccncn1` [Compound 2, (S)-4-(cyclopropyl(4-(5,6,7,8-tetrahydro-1,8-naphthyridin-2-yl)butyl)amino)-2-(pyrimidin-4-ylamino) butanoic acid], the IC50 lay within 250 to 1000 nM.

Consider `COC[C@@H](F)CN(CCCCc1ccc2c(n1)NCCC2)CC[C@H](Nc1ccncn1)C(=O)O` [Compound 127, (S)-4-(((S)-2-fluoro-3-methoxypropyl) (4-(5,6,7,8-tetrahydro-1,8-naphthyridin-2-yl)butyl)amino)-2-(pyrimidin-4-ylamino) butanoic acid], for which the half-maximal inhibitory concentration (IC50) was in the range of 250 to 1000 nM.

Take `COCCN(CCCCc1ccc2c(n1)NCCC2)CC[C@H](Nc1cc(-n2cccn2)ncn1)C(=O)O` [Compound 44, (S)-2-((6-(1H-pyrazol-1-yl)pyrimidin-4-yl)amino)-4-((2-methoxyethyl) (4-(5,6,7,8-tetrahydro-1,8-naphthyridin-2-yl)butyl)amino) butanoic acid]: the IC50 is less than 50 nM.

The term IC50 denotes the point on the concentration scale where inhibition reaches its midpoint.

The record behind these values is patent US20230028658A1, “EXPANDED DOSAGE REGIMENS FOR INTEGRIN INHIBITORS” (Pliant Therapeutics, Inc., priority 2021, published 2023).
